From PubChem BioAssay AID1508591

Settings: rat; liver microsomes; pH 7.4; 15.0 min; 1.0 µM

Row | Structure (SMILES) | half-life [min]
1 | CCOc1cc(-c2nccc3cc(OC)c(OC)cc23)cc(OCC)c1OCC | 2.8
2 | O=C(c1ccc(C(=O)N2CCC(N3CCCC3)CC2)c(Nc2ccccc2)c1)N1CCC(N2CCCC2)CC1 | > 30
3 | O=C(Nc1nc(-c2ccccc2)cs1)c1ccncc1NS(=O)(=O)c1ccc(-c2ccccc2)cc1 | 2
4 | CCOC(=O)c1[nH]c(C)c(CCC(=O)N2CCN(c3cccc(C)c3C)CC2)c1C | 2.27
5 | Fc1ccc(CN2CCOC[C@H]2c2ncc(-c3ccc(Cl)s3)[nH]2)cc1 | 3.47
6 | CN(C)CC(=O)NC1CCCc2c1cnn2-c1ccc(F)cc1F (stereo not given) | > 30
7 | CC(=O)Nc1ncc(S(=O)(=O)N2CCOCC2)s1 | > 30
8 | FC(F)(F)Oc1cccc(Nc2nc(-c3ccncc3)nc3ccccc23)c1 | 19
9 | O=C(Nc1ccc(OC(F)(F)Cl)cc1)c1cnc(N2CC[C@@H](O)C2)c(-c2ccn[nH]2)c1 | > 30
10 | NC(=O)COc1cccc(C2CC(=O)Nc3nc(N4CCCCC4)sc32)c1 (stereo not given) | 5.1
11 | COC(=O)[C@]12CCC(C)(C)C[C@@H]1[C@@H]1C(=O)C=C3[C@@]4(C)C=C(C#N)C(=O)C(C)(C)[C@@H]4CC[C@@]3(C)[C@]1(C)CC2 | 5.97
12 | Cc1ccc(-c2cc(C(=O)Nc3cccc(S(N)(=O)=O)c3)c3ccccc3n2)cc1C | 12
13 | Cc1ccccc1C(=O)N1CCc2cc(-c3ccnc(NC(=O)Cc4ccccc4)n3)ccc21 | 5.5
14 | CC[C@H](NC(=O)c1c(O)c(-c2ccccc2)nc2ccccc12)c1ccccc1 | > 30
15 | O=C(NC1CCN(c2cc(-c3ccc(Cl)cc3)[nH]n2)C1)c1ccccc1 (stereo not given) | > 30
16 | Nc1c(-c2ccccc2)cnc2c(-c3ccccc3)cnn12 | > 30
17 | CCOc1ccc(CCNC(=O)c2cccc(C(=O)c3ccccc3)c2)cc1OCC | 1.66
18 | Cc1cc(SCc2sc(-c3ccc(C(F)(F)F)cc3)nc2C)ccc1OCC(=O)O | > 30
19 | Cc1ccc(C)c(CN2C(=O)c3ccccc3S(=O)c3ccc(C(=O)N4CCN(c5ccccc5F)CC4)cc32)c1 (stereo not given) | 2.32
20 | Nc1nc2c(s1)C(c1ccccc1)CC(=O)N2 (stereo not given) | > 30
21 | O=c1[nH]c(C2CCN(S(=O)(=O)c3ccc4c(c3)OCCO4)CC2)nc2c1nnn2Cc1c(F)cccc1Cl | 1.4
22 | COc1ccc(NC(=O)c2ccc[nH]2)cc1S(=O)(=O)Nc1ccc(Br)cc1 | 7.44
23 | O=C1Nc2ccccc2/C1=C\c1ccc(O)c(F)c1 | 20
24 | CCOc1cc(CCNC(=O)c2cc3sccc3n2Cc2ccccc2)cc(F)c1OCC | 2

Row | Structure (SMILES) | half-life [min]
25 | COc1ccc(NS(=O)(=O)c2ccc(C)c(C(=O)Nc3ccc4oc(C)nc4c3)c2)cc1 | 4.3
26 | Cc1ccc(-c2ccc(CNc3nc(-c4ccccc4C(C)C)ncc3C)cc2)cn1 | 4.28
27 | Cc1sc(NC(=O)Cc2ccc3c(c2)OCO3)nc1-c1ccc2c(c1)CCN2C(=O)c1ccccc1Cl | 24
28 | Cc1ccnc(NC(=S)N2CCN(c3cccc(C(F)(F)F)n3)CC2)c1 | 15
29 | Cc1cccc(-n2cnc3cc(C(=O)N4CCCCCC4)ccc32)c1 | 2.9
30 | COc1ccc2[nH]c3c(c2c1)CCNC31CCN(S(=O)(=O)c2c(C)noc2C)CC1 | > 30
31 | CCn1c(C(=O)N2CCCC(C(=O)NCCc3ccc(C)cc3)C2)cc2sccc21 (stereo not given) | 1.7
32 | O=C(CCCN1CCC(O)(c2cccc(C(F)(F)F)c2)CC1)c1ccc(F)cc1 | 20.5
33 | COc1ccc(-c2ccc(C(=O)NC3CC(c4cc(=O)[nH]c(N)n4)C3)o2)cc1 (stereo not given) | > 30
34 | COc1cc(Cl)c(C)cc1Nc1c2c(nc3ccccc13)CCC2 | 1.75
35 | COc1cc2c(cc1-c1c(C)noc1C)ncc1[nH]c(=O)n([C@H](C)c3ccccn3)c12 | > 30
36 | [2H]C([2H])(Nc1nc(-c2ccccc2C([2H])(C([2H])([2H])[2H])C([2H])([2H])[2H])ncc1C)c1ccc(-n2ccnn2)cc1 | 13
37 | C=CCON=C(C[C@H]1O[C@@H]2O[C@]3(C)CC[C@@H]4[C@H](C)CC[C@@H]([C@H]1C)[C@@]24OO3)[C@H]1O[C@@H]2O[C@]3(C)CC[C@H]4[C@H](C)CC[C@@H]([C@@H]1C)[C@@]24OO3 | 2.8
38 | COc1ccc2[nH]c3c(C)c4ccncc4c(C)c3c2c1 | > 30
39 | CC(C)CC(C)NC(=O)c1noc(-c2ccc[nH]c2=O)n1 (stereo not given) | > 30
40 | CC(=O)Nc1cccc(-c2nc(-c3c(C)noc3C)cc3c2cc(-c2ccccc2)n3C)c1 | > 30
41 | COc1ccc(-c2nc3ccccc3c(=O)n2Cc2ccccc2)cc1COc1ccc(NC(C)=O)cc1 | 3.16
42 | O=c1cc(-c2ccccc2)oc2cc(O)cc(O)c12 | 1.92
43 | O=C(O)c1ccc(O)c2ncc(N3CCCN(CCc4cccc5ccccc45)CC3)cc12 | > 30
44 | Cc1c(C)n(Cc2ccccc2)c2ccc(C(=O)OCCN(C)C)cc12 | 1.78
45 | COc1cc(=O)n2c(c1C(=O)N(C)Cc1cscn1)CCN(C(=O)c1ccc(C)cc1C)CC2 | > 30
46 | O=C(Nc1ccc(Oc2ccnc3[nH]ccc23)c(F)c1)c1cccn(-c2ccc(F)cc2)c1=O | 13.1
47 | Cc1n[nH]c(C)c1CCc1nc2c3ccccc3nc(SCC(=O)Nc3ccc(F)cc3)n2n1 | 2.67
48 | O=C(Nc1ncnc2sc3c(c12)CCC3)c1ccco1 | 5.6

Row | Structure (SMILES) | half-life [min]
49 | COc1ccc(O)c(CNc2ccc(S(=O)(=O)Nc3nccs3)cc2)c1 | > 30
50 | N#Cc1nc(-c2cccc3ccccc23)oc1NCc1ccccc1 | 8.6
51 | COC1C(OC(=O)c2ccc(C)[nH]2)C(O)C(Oc2ccc3c(O)c(NC(=O)c4ccc(O)c(CC=C(C)C)c4)c(=O)oc3c2Cl)OC1(C)C (stereo not given) | 28.3
52 | CC[C@@H](CO)NC(=O)[C@@H]1C=C2c3cccc4c3c(cn4C)C[C@H]2N(C)C1 | > 30
53 | Nc1nc(Nc2ccc(S(N)(=O)=O)cc2)n(C(=S)Nc2c(F)cccc2F)n1 | > 30
54 | O=C(c1cccc(F)c1)N1CCC2(CCN(Cc3cc(C(F)(F)F)cc(C(F)(F)F)c3)CC2)CC1 | > 30
55 | Cc1ccc(N(C)S(=O)(=O)c2ccc(-c3cnc(C4CC4)o3)cc2)cc1 | 3.6
56 | CCOC(=O)C1CCN(c2nc(-c3ccc(Br)cc3)cs2)CC1 | 2.19
57 | c1ccc(-c2cn[nH]c2)cc1 | 13.1
58 | CC1=C(C(=O)Nc2ccccc2)C(c2ccccc2Br)N=C(Nc2nc3ccccc3o2)N1 (stereo not given) | 27
59 | Fc1ccc(Nc2cc(-c3ccccc3)nc(-c3ccncc3)n2)cc1F | > 30
60 | Clc1cccc(Nc2nc(-c3ccncc3)nc3ccccc23)c1 | 7.7
61 | CCOC(=O)N1CCc2c(sc(NCc3sccc3C)c2C(=O)Nc2cc(Cl)ccc2OC)C1 | 9.8
62 | Cc1cnc(CNc2nc(-c3cccc(NS(C)(=O)=O)c3)nc3ccccc23)cn1 | 21
63 | O=C1CCCC2=C1C(c1ccncc1Cl)N=C(Nc1nc3ccccc3o1)N2 (stereo not given) | 6.6
64 | Cc1cccc(-c2noc([C@@H]3Cc4nc[nH]c4CN3)n2)c1 | > 30
65 | CC(=O)c1cccc(-c2csc(N3CCC(C(N)=O)CC3)n2)c1 | 2.21
66 | CC(C)(C)n1cnc2cc(C(=O)N3CCCCC3)ccc21 | 9.7
67 | Cc1ccc2c(c1)/C(=C\c1cc(Cl)c(O)c(Cl)c1)C(=O)N2 | 22
68 | Cc1ccc(C)c(S(=O)(=O)NCC2CN(Cc3ccccc3)CCO2)c1 (stereo not given) | 1.6
69 | CCN(CC)S(=O)(=O)c1ccc(N2CCCC2)c(NS(=O)(=O)c2ccc(C)cc2)c1 | 1.17
70 | CC1=C(C(=O)NC2CCCC2)C(c2nn(C)cc2Cl)N=C(Nc2nc3ccccc3o2)N1 (stereo not given) | 2.7
